{"source": "patent US20040220148A1", "about": "“5-Membered ring heterocycles as inhibitors of leucocyte adhesion and as VLA-4 antagonists” (Aventis Pharma Deutschland GmbH, priority 1996, published 2004)", "note": "Counter-ions that a name gives are not always drawn."}
{"target": "T1, VLA-4 integrins on human U937 cells (interaction between VCAM-1 and VLA-4) (Homo sapiens, UniProt P05556+P13612)", "T1 construct": "the VLA-4 integrins, are offered in their natural form as surface molecules on human U937 cells; host or cells: U937 cells (VLA-4, endogenous); the partner hVCAM-1(1-3)-IgG came from the supernatant of transfected COS cells (ATCC CRL1651)", "T1 sequence (P13612 34-1032)": "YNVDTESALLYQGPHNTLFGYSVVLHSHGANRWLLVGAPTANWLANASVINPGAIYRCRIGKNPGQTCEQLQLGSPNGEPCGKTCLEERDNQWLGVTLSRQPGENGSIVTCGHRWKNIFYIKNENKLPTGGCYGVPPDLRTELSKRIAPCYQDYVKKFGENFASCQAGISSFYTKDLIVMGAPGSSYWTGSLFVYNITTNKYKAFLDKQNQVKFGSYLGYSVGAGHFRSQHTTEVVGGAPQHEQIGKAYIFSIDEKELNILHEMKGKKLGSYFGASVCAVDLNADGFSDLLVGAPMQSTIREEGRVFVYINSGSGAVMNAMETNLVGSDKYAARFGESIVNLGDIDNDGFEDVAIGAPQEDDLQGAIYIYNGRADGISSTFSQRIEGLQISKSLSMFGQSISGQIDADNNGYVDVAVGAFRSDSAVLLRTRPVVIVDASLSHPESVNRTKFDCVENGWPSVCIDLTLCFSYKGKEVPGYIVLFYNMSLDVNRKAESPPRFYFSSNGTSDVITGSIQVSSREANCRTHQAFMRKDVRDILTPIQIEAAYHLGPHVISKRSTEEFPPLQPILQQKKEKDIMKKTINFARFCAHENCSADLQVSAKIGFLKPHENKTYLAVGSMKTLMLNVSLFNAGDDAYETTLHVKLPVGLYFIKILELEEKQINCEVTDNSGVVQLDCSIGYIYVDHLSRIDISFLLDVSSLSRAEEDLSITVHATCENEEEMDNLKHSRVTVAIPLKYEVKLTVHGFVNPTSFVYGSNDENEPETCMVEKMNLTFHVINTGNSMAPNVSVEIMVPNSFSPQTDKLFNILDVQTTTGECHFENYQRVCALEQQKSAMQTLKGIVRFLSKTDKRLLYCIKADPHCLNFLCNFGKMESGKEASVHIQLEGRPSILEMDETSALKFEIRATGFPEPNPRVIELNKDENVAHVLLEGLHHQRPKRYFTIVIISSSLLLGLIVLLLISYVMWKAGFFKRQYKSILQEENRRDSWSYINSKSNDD", "T1 sequence (P05556 21-798)": "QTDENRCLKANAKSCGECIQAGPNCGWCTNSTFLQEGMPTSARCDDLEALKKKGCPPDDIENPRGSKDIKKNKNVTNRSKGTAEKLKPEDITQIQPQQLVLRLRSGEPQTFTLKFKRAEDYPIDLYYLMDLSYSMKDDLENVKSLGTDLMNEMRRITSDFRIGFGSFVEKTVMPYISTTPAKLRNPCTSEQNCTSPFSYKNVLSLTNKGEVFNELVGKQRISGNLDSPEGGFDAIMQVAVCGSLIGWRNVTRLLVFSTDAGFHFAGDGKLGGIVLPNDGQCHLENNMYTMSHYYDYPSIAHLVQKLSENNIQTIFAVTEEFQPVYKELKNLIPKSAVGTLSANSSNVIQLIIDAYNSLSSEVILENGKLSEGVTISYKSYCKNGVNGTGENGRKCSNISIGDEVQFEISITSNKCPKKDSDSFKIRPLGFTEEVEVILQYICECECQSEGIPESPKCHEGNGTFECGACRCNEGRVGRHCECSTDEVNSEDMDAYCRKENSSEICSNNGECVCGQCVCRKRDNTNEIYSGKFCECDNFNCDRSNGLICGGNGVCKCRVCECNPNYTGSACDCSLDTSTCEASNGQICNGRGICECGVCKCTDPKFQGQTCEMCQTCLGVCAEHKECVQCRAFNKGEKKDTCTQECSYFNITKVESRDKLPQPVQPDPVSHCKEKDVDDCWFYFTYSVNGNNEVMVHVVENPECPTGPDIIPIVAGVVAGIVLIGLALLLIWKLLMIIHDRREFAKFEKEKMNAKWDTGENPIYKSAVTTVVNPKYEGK", "test": "U937/VCAM-1 cell adhesion test (adhesion of U937 cells to hVCAM-1(1-3)-IgG)", "assay_type": "cell-based", "conditions": "concentration leading to 50% inhibition of adhesion", "excerpt": "As a test method for the activity of the compounds of the formula I on the interaction between VCAM-1 and VLA-4, an assay which is specific for this interaction is used. The cellular binding components, i.e. the VLA-4 integrins, are offered in their natural form as surface molecules on human U937 cells (ATCC CRL 1593) which belong to the group of leucocytes. As specific binding components, recombinant soluble fusion proteins prepared by genetic engineering and consisting of the extracytoplasmic domains of human VCAM-1 and the constant region of a human immunoglobulin of the subclass IgG1 are used.\nAssay for the Measurement of the Adhesion of U937 Cells (ATCC CRL 1593) to hVCAM-1 (1-3)-IgG\n1. Preparation of Human VCAM-1(1-3)-IgG and Human CD4-IgG\nA genetic construct for the expression of the extracellular domains of human VCAM-1 was employed, associated with the genetic sequence of the heavy chain of human immunoglobulin IgG1 (hinge, CH2 and CH3 regions), from Dr. Brian Seed, Massachusetts General Hospital, Boston, USA. The soluble fusion protein hVCAM-1(1-3)-IgG contained the three amino-terminal extracellular immunoglobulin-like domains of human VCAM-1 (Damle and Aruffo, Proc. Natl. Acad. Sci. USA 1991, 88, 6403). CD4-IgG (Zettlmeissl et al, DNA and Cell Biology 1990, 9, 347) served as a fusion protein for negative controls. The recombinant proteins were expressed as soluble proteins after DEAE/dextran-mediated DNA-transfection in COS cells (ATCC CRL1651) according to standard procedures (Ausubel et al., Current protocols in molecular biology, John Wiley & Sons, Inc., 1994).\n2. Assay for Measurement of the Adhesion of U937 Cells to hVCAM-1(1-3)-IgG\n2.1 96-well microtiter test plates (Nunc Maxisorb) were incubated at room temperature for 1 hour with 100 μl/well of a goat-anti-human IgG antibody solution (10 μg/ml in 50 mM tris, pH 9.5). After removing the antibody solution, washing was carried out once with PBS.\n2.2 150 μl/well of a blocking buffer (1% BSA in PBS) were incubated on the plates at room temperature for 0.5 hours. After removing the blocking buffer, washing was carried out once with PBS.\n2.3 100 μl per well of a cell culture supernatant of transfected COS cells were incubated on the plates at room temperature for 1.5 hours. The COS cells were transfected with a plasmid which codes for the three N-terminal immunoglobulin-like domains of VCAM-1, coupled to the Fc part of human IgG1 (hVCAM-1(1-3)-IgG). The content of hVCAM-1 (1-3)-IgG was about […]. After removing the culture supernatant, washing was carried out once with PBS.\n2.4 The plates were incubated at room temperature for 20 minutes with […] of Fc receptor blocking buffer (1 mg/ml of γ-globulin, 100 mM NaCl, 100 μM MgCl2, 100 μM MnCl2, 100 μM CaCl2, 1 mg/ml BSA in 50 mM HEPES, pH 7.5). After removing the Fc receptor blocking buffer, washing was carried out once with PBS.\n2.5 20 μl of binding buffer (100 mM NaCl, 100 μM MgCl2, 100 μM MgCl2, 100 μM CaCl2, 1 mg/ml BSA in 50 mM HEPES, pH 7.5), were initially introduced, the substances to be tested were added in 10 μl of binding buffer and the mixture was incubated for 20 minutes. As controls, antibodies against VCAM-1 (BBT, No. BBA6) and against VLA-4\n(Immunotech, No. 0764) were used.\n2.6 U937 cells were incubated in Fc receptor blocking buffer for 20 minutes and then pipetted in at a concentration of 1×10^6/ml and in an amount of 100 μl per well ([…]).\n2.7 The plates were slowly immersed at an angle of 45° in stop buffer (100 mM NaCl, 100 μM MgCl2, 100 μM MnCl2, 100 μM CaCl2 in 25 mM Tris, pH 7.5) and shaken off. The process was repeated.\n2.8 50 μl/well of a dye solution (16.7 μg/ml of Hoechst dye 33258, 4% formaldehyde, 0.5% Triton X-100 in PBS) were then incubated on the plates for 15 minutes.\n2.9 The plates were shaken off and slowly immersed at an angle of 45° in stop buffer (100 mM NaCl, 100 μM MgCl2, 100 μM MnCl2, 100 μM CaCl2 in 25 mM Tris, pH 7.5). The process was repeated. […]", "units": {"IC50": "µM"}}
{"smiles": "CC(C)(C)c1ccc(CN2C(=O)N(CC(=O)N[C@@H](CC(=O)O)C(=O)N[C@H](C(=O)O)c3ccccc3)C(=O)C2(C)c2ccc(C(=N)N)cc2)cc1", "note": "(mixture of isomers) [Example 5, ((R,S)-4-(4-(Amino-imino-methyl)phenyl)-3-(4-tert-butyl-benzyl)-4-methyl-2,5-dioxoimidazolidin-1-yl)acetyl-L-aspartyl-L-phenylglycine]", "IC50": 15}
{"smiles": "CC1(c2ccc(C(=N)N)cc2)C(=O)N(CC(=O)N[C@@H](CC(=O)O)C(=O)N[C@H](C(=O)O)c2ccccc2)C(=O)N1Cc1c(F)c(F)c(F)c(F)c1F", "note": "(mixture of isomers) [Example 6, ((R,S)-4-(4-(Amino-imino-methyl)phenyl)-3-(2,3,4,5,6-pentafluorobenzyl)-4-methyl-2,5-dioxoimidazolidin-1-yl)acetyl-L-aspartyl-L-phenylglycine]", "IC50": 65}
{"smiles": "CC1(c2ccc(C(=N)N)cc2)C(=O)N(CC(=O)N[C@@H](CC(=O)O)C(=O)N[C@H](C(=O)O)c2ccccc2)C(=O)N1Cc1ccc([N+](=O)[O-])cc1", "note": "(mixture of isomers) [Example 7, ((R,S)-4-(4-(Amino-imino-methyl)phenyl)-3-(4-nitrobenzyl)-4-methyl-2,5-dioxoimidazolidin-1-yl)acetyl-L-aspartyl-L-phenylglycine]", "IC50": 25}
{"smiles": "Cc1cc(C)cc(CN2C(=O)N(CC(=O)N[C@@H](CC(=O)O)C(=O)N[C@H](C(=O)O)c3ccccc3)C(=O)C2(C)c2ccc(C(=N)N)cc2)c1", "note": "(mixture of isomers) [Example 8, ((R,S)-4-(4-(Amino-imino-methyl)phenyl)-3-(3,5-dimethylbenzyl)-4-methyl-2,5-dioxoimidazolidin-1-yl)acetyl-L-aspartyl-L-phenylglycine]", "IC50": 3.5}
{"smiles": "CC1(c2ccc(C(=N)N)cc2)C(=O)N(CC(=O)N[C@@H](CC(=O)O)C(=O)N[C@H](C(=O)O)c2ccccc2)C(=O)N1Cc1ccccc1CS(=O)(=O)c1ccccc1", "note": "(mixture of isomers) [Example 10]", "IC50": 47}
{"smiles": "CC1(c2ccc(C(=N)N)cc2)C(=O)N(CC(=O)N[C@@H](CC(=O)O)C(=O)N[C@H](C(=O)O)c2ccccc2)C(=O)N1Cc1ccccc1-c1ccccc1", "note": "(mixture of isomers) [Example 11, ((R,S)-4-(4-(Amino-imino-methyl)phenyl)-3-((2-biphenylyl)methyl)-4-methyl-2,5-dioxoimidazolidin-1-yl)acetyl-L-aspartyl-L-phenylglycine]", "IC50": 62}
{"smiles": "Cc1ccc(CN2C(=O)N(CC(=O)N[C@@H](CC(=O)O)C(=O)N[C@H](C(=O)O)c3ccccc3)C(=O)C2(C)c2ccc(C(=N)N)cc2)cc1", "note": "(mixture of isomers) [Example 12, ((R,S)-4-(4-(Amino-imino-methyl)phenyl)-3-(4-methylbenzyl)-4-methyl-2,5-dioxoimidazolidin-1-yl)acetyl-L-aspartyl-L-phenylglycine]", "IC50": 2.7}
{"smiles": "CC1(c2ccc(C(=N)N)cc2)C(=O)N(CC(=O)N[C@@H](CC(=O)O)C(=O)N[C@H](C(=O)O)c2ccccc2)C(=O)N1Cc1cccc2ccccc12", "note": "(mixture of isomers) [Example 13, ((R,S)-4-(4-(Amino-imino-methyl)phenyl)-3-((1-naphthyl)methyl)-4-methyl-2,5-dioxoimidazolidin-1-yl)acetyl-L-aspartyl-L-phenylglycine]", "IC50": 3.7}
{"smiles": "CC1(c2ccc(C(=N)N)cc2)C(=O)N(CC(=O)N[C@@H](CC(=O)O)C(=O)N[C@H](C(=O)O)c2ccccc2)C(=O)N1Cc1ccc(-c2ccccc2)cc1", "note": "(mixture of isomers) [Example 14, ((R,S)-4-(4-(Amino-imino-methyl)phenyl)-3-((4-biphenylyl)methyl)-4-methyl-2,5-dioxoimidazolidin-1-yl)acetyl-L-aspartyl-L-phenylglycine]", "IC50": 0.25}
{"smiles": "CC1(c2ccc(C(=N)N)cc2)C(=O)N(CC(=O)N[C@@H](CC(=O)O)C(=O)N[C@H](C(=O)O)c2ccccc2)C(=O)N1Cc1ccc(C(F)(F)F)cc1", "note": "(mixture of isomers) [Example 15, ((R,S)-4-(4-(Amino-imino-methyl)phenyl)-3-(4-trifluoromethylbenzyl)-4-methyl-2,5-dioxoimidazolidin-1-yl)acetyl-L-aspartyl-L-phenylglycine]", "IC50": 32}
{"smiles": "CC1(c2ccc(C(=N)N)cc2)C(=O)N(CC(=O)N[C@@H](CC(=O)O)C(=O)N[C@H](C(=O)O)c2ccccc2)C(=O)N1Cc1cc(C(F)(F)F)cc(C(F)(F)F)c1", "note": "(mixture of isomers) [Example 16, ((R,S)-4-(4-(Amino-imino-methyl)phenyl)-3-(3,5-bis(trifluoromethyl)benzyl)4-methyl-2,5-dioxoimidazolidin-1-yl)acetyl-L-aspartyl-L-phenylglycine]", "IC50": 30}
{"smiles": "Cc1c(C)c(C)c(CN2C(=O)N(CC(=O)N[C@@H](CC(=O)O)C(=O)N[C@H](C(=O)O)c3ccccc3)C(=O)C2(C)c2ccc(C(=N)N)cc2)c(C)c1C", "note": "(mixture of isomers) [Example 17, ((R,S)-4-(4-(Amino-imino-methyl)phenyl)-3-(pentamethylbenzyl)-4-methyl-2,5-dioxoimidazolidin-1-yl)acetyl-L-aspartyl-L-phenylglycine]", "IC50": 79}
{"smiles": "CN(C(=O)CN1C(=O)N(Cc2ccccc2)C(C)(c2ccc(C(=N)N)cc2)C1=O)[C@@H](CC(=O)O)C(=O)N[C@H](C(=O)O)c1ccccc1", "note": "(mixture of isomers) [Example 19, ((R,S)-4-(4-(Amino-imino-methyl)phenyl)-3-benzyl-4-methyl-2,5-dioxo-imidazolidin-1-yl)acetyl-L-N-methyl-aspartyl-L-phenylglycine]", "IC50": 0.2}
{"smiles": "COC(=O)[C@@H](NC(=O)[C@H](CC(=O)O)NC(=O)CN1C(=O)N(Cc2ccccc2)C(C)(c2ccc(C(=N)N)cc2)C1=O)c1ccccc1", "note": "(mixture of isomers) [Example 25, ((R,S)-4-(4-(Amino-imino-methyl)phenyl)-3-benzyl-4-methyl-2,5-dioxo-imidazolidin-1-yl)acetyl-L-aspartyl-L-phenylglycine methyl ester]", "IC50": 22}
{"smiles": "CC1(c2ccc(C(=N)N)cc2)C(=O)N(CC(=O)NCCC(=O)O)C(=O)N1Cc1ccccc1", "note": "(racemic) [Example 34, 3-(((R,S)-4-(4-(Amino-imino-methyl)phenyl)-3-benzyl-4-methyl-2,5-dioxoimidazolidin-1-yl)acetylamino)propionic acid hydrochloride]", "IC50": 175}
{"smiles": "CC1(c2ccc(C(=N)N)cc2)NC(=O)N(CC(=O)N[C@@H](CC(=O)O)C(=O)N[C@H](C(=O)O)c2ccccc2)C1=O", "note": "(stereo partly drawn) [Example 1, ((R,S)-4-(4-(Amino-imino-methyl)phenyl)-4-methyl-2,5-dioxoimidazolidin-1-yl)acetyl-L-aspartyl-L-phenylglycine]", "IC50": 140}
{"smiles": "CN1C(=O)N(CC(=O)N[C@@H](CC(=O)O)C(=O)N[C@H](C(=O)O)c2ccccc2)C(=O)C1(C)c1ccc(C(=N)N)cc1", "note": "(stereo partly drawn) [Example 2, ((R,S)-4-(4-(Amino-imino-methyl)phenyl)-3,4-dimethyl-2,5-dioxo-imidazolidin-1-yl)acetyl-L-aspartyl-L-phenylglycine]", "IC50": 15}
